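Grown in 96-well plates, cells were treated for 48 hours with each compound at five concentrations. Insufficient inhibition: endpoint recorded as highest concentration tested. GI50: concentration for 50% inhibition of growth.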 Activity calls are given as the source filed them. Rule as the data show it: active = GI50 up to about 1.1 µM and inactive = higher.
Columns and labels:
Experiment in all cases: NCI anticancer screen, dose series, 48 h
[1] = system: PC-3
[2] = system: U-251
[3] = system: OVCAR-3
[4] = system: SF-295
[5] = system: KM12
[6] = system: SR
[7] = system: MOLT-4
[8] = system: UACC-257
[9] = system: SNB-75
[10] = system: SW-620
[11] = system: HOP-62
[12] = system: Hs-578T
[13] = system: DU-145
[14] = system: MDA-MB-231
[15] = system: K562
[16] = system: CCRF-CEM
[17] = system: TK-10
[18] = system: SF-539
[19] = system: CAKI-1
[20] = system: NCI/ADR-RES

Structure (SMILES) | GI50 [1] | GI50 [2] | GI50 [3] | GI50 [4] | GI50 [5] | GI50 [6] | GI50 [7] | GI50 [8] | GI50 [9] | GI50 [10] | GI50 [11] | GI50 [12] | GI50 [13] | GI50 [14] | GI50 [15] | GI50 [16] | GI50 [17] | GI50 [18] | GI50 [19] | GI50 [20]
Oc1cc2c3c(c1)c1cc4c(cc1c[n+]3CC2)OCO4 | 3 µM (inactive) | 0.971 µM (active) | 4.88 µM (inactive) | 2.97 µM (inactive) | 1.82 µM (inactive) | 0.671 µM (active) | 0.242 µM (active) | 8.83 µM (inactive) | 2.25 µM (inactive) | 2.86 µM (inactive) | 8.45 µM (inactive) | 0.906 µM (active) | 3.23 µM (inactive) | 2.79 µM (inactive) | 1.57 µM (inactive) | 2.84 µM (inactive) | 13 µM (inactive) | 2.28 µM (inactive) | 10.2 µM (inactive) | –
CC1(C)OC[C@H](COCOP2(=O)Oc3ccc4ccccc4c3-c3c(ccc4ccccc34)O2)O1 | 14.2 µM (inactive) | 18 µM (inactive) | 15.3 µM (inactive) | 17.6 µM (inactive) | 15.5 µM (inactive) | 16.7 µM (inactive) | 15 µM (inactive) | – | – | 15.3 µM (inactive) | 21.4 µM (inactive) | 47.5 µM (inactive) | 17.6 µM (inactive) | 15.7 µM (inactive) | 21.8 µM (inactive) | 27.6 µM (inactive) | 20.2 µM (inactive) | 18.8 µM (inactive) | – | 18.3 µM (inactive)
O=c1[nH]c2cc([N+](=O)[O-])c(N/N=C/c3ccc(Cl)cc3Cl)c([N+](=O)[O-])c2[nH]1 | > 100 µM (inactive) | 34.4 µM (inactive) | 17.4 µM (inactive) | > 100 µM (inactive) | 5.85 µM (inactive) | – | 32.9 µM (inactive) | > 100 µM (inactive) | > 100 µM (inactive) | 26.7 µM (inactive) | 59.6 µM (inactive) | 90.2 µM (inactive) | 51.9 µM (inactive) | 13.1 µM (inactive) | 43.6 µM (inactive) | 23.8 µM (inactive) | 31.6 µM (inactive) | > 100 µM (inactive) | > 100 µM (inactive) | 15.5 µM (inactive)
O=C1C(Cl)C2(CC(/C=C/c3ccccc3)=NN2c2cccc(S(=O)(=O)O)c2)N1c1nc2ccccc2s1 (stereo not given) | 16.1 µM (inactive) | 14.7 µM (inactive) | – | – | 16.3 µM (inactive) | 13.4 µM (inactive) | 20.7 µM (inactive) | 17.8 µM (inactive) | 15.3 µM (inactive) | 28.8 µM (inactive) | – | 30.9 µM (inactive) | – | 12.2 µM (inactive) | 21.4 µM (inactive) | 12.4 µM (inactive) | 16.9 µM (inactive) | 15.3 µM (inactive) | 9.46 µM (inactive) | 28.2 µM (inactive)
CCOC(=O)C1(O)C(=O)C2=C3C(=O)OC(C4OC(=O)c5c(c(O)c(O)c(O)c5C31)-c1c(cc(O)c(O)c1O)C(=O)OC1COC(=O)c3cc(O)c(O)c(O)c3-c3c(cc(O)c(O)c3O)C(=O)OC14)[C@@H]2O (stereo not given in full) | 46 µM (inactive) | 19.2 µM (inactive) | 32.6 µM (inactive) | 19.1 µM (inactive) | 33.7 µM (inactive) | 30.8 µM (inactive) | 22 µM (inactive) | 28.5 µM (inactive) | – | 20.7 µM (inactive) | 36.5 µM (inactive) | 30.8 µM (inactive) | 31 µM (inactive) | 15.2 µM (inactive) | 20.7 µM (inactive) | 17.2 µM (inactive) | – | – | 13 µM (inactive) | 27.6 µM (inactive)
COC(=O)/C=C\C(C#N)(C#N)/N=C/c1ccc(Br)cc1 | 13.4 µM (inactive) | 13.6 µM (inactive) | 12 µM (inactive) | 18.2 µM (inactive) | 14.4 µM (inactive) | 5.42 µM (inactive) | 0.673 µM (active) | 14.8 µM (inactive) | 15 µM (inactive) | 2.76 µM (inactive) | 16.7 µM (inactive) | 17.6 µM (inactive) | 12.1 µM (inactive) | 4.08 µM (inactive) | 3.4 µM (inactive) | 1.54 µM (inactive) | 2.45 µM (inactive) | – | 2.66 µM (inactive) | 20.2 µM (inactive)
COc1ccccc1[C@@H]1CCC2CC[C@@H](c3ccccc3OC)[N+]21Cc1ccccc1 (stereo not given in full) | 1.25 µM (inactive) | 0.385 µM (active) | 0.887 µM (active) | 2.33 µM (inactive) | 0.522 µM (active) | 1.03 µM (active) | 1.83 µM (inactive) | 0.521 µM (active) | 2.15 µM (inactive) | 2.6 µM (inactive) | 2.33 µM (inactive) | 4.49 µM (inactive) | 2.28 µM (inactive) | 1.95 µM (inactive) | 0.344 µM (active) | 1.73 µM (inactive) | 5.74 µM (inactive) | – | 3.87 µM (inactive) | 13 µM (inactive)
O=C(NCCC1CN(S(=O)(=O)C(F)(F)F)c2ccccc21)OCc1ccccc1 (stereo not given) | > 100 µM (inactive) | 83.9 µM (inactive) | > 100 µM (inactive) | > 100 µM (inactive) | 83.4 µM (inactive) | > 100 µM (inactive) | 59.2 µM (inactive) | > 100 µM (inactive) | – | > 100 µM (inactive) | > 100 µM (inactive) | 76.6 µM (inactive) | > 100 µM (inactive) | > 100 µM (inactive) | 66.1 µM (inactive) | 38.6 µM (inactive) | – | – | > 100 µM (inactive) | > 100 µM (inactive)
C=CC[C@@]12CCC(=O)C=C1CCCC2=O | > 100 µM (inactive) | > 100 µM (inactive) | > 100 µM (inactive) | > 100 µM (inactive) | – | > 100 µM (inactive) | > 100 µM (inactive) | > 100 µM (inactive) | – | > 100 µM (inactive) | > 100 µM (inactive) | > 100 µM (inactive) | > 100 µM (inactive) | > 100 µM (inactive) | > 100 µM (inactive) | – | > 100 µM (inactive) | > 100 µM (inactive) | > 100 µM (inactive) | > 100 µM (inactive)
CC1CC(N)=C(C#N)C1(C#N)C#N (stereo not given) | > 100 µM (inactive) | > 100 µM (inactive) | – | > 100 µM (inactive) | > 100 µM (inactive) | – | > 100 µM (inactive) | > 100 µM (inactive) | 74.3 µM (inactive) | > 100 µM (inactive) | – | > 100 µM (inactive) | > 100 µM (inactive) | > 100 µM (inactive) | > 100 µM (inactive) | – | > 100 µM (inactive) | > 100 µM (inactive) | 24.3 µM (inactive) | > 100 µM (inactive)
Cc1cn(CC2=NCC(C)(C)CN2)c(=O)[nH]c1=O | > 100 µM (inactive) | > 100 µM (inactive) | – | > 100 µM (inactive) | – | – | – | > 100 µM (inactive) | > 100 µM (inactive) | > 100 µM (inactive) | > 100 µM (inactive) | > 100 µM (inactive) | > 100 µM (inactive) | > 100 µM (inactive) | – | > 100 µM (inactive) | > 100 µM (inactive) | – | – | > 100 µM (inactive)
COc1cc(N(C)C)c(OC)cc1C=C1C=CC=C1 | > 100 µM (inactive) | > 100 µM (inactive) | > 100 µM (inactive) | > 100 µM (inactive) | > 100 µM (inactive) | 61.2 µM (inactive) | 38.6 µM (inactive) | – | – | > 100 µM (inactive) | > 100 µM (inactive) | > 100 µM (inactive) | > 100 µM (inactive) | > 100 µM (inactive) | 58.5 µM (inactive) | 54.1 µM (inactive) | > 100 µM (inactive) | > 100 µM (inactive) | – | 74.6 µM (inactive)
Cn1cnc2c(sc3nc4ccccc4n32)c1=N | > 100 µM (inactive) | > 100 µM (inactive) | > 100 µM (inactive) | 68.1 µM (inactive) | – | – | > 100 µM (inactive) | > 100 µM (inactive) | 11.2 µM (inactive) | > 100 µM (inactive) | > 100 µM (inactive) | 42.7 µM (inactive) | > 100 µM (inactive) | > 100 µM (inactive) | – | > 100 µM (inactive) | > 100 µM (inactive) | > 100 µM (inactive) | > 100 µM (inactive) | > 100 µM (inactive)
O=C1/C(=C\c2cccs2)Oc2ccccc21 | 43.2 µM (inactive) | 51.6 µM (inactive) | 24.9 µM (inactive) | 74 µM (inactive) | 59.4 µM (inactive) | > 100 µM (inactive) | 33.9 µM (inactive) | 63.1 µM (inactive) | 55.7 µM (inactive) | > 100 µM (inactive) | 39.9 µM (inactive) | 45.7 µM (inactive) | 50.9 µM (inactive) | 71.1 µM (inactive) | 74.5 µM (inactive) | 57.7 µM (inactive) | 90.6 µM (inactive) | – | 33.6 µM (inactive) | 54.7 µM (inactive)
COC(=O)/N=[N+](\[O-])C(c1ccc(OC)cc1)C1CCCCC1 (stereo not given) | 1.69 µM (inactive) | 1.03 µM (active) | 6.15 µM (inactive) | 1.82 µM (inactive) | 2.39 µM (inactive) | – | 2.87 µM (inactive) | 1.47 µM (inactive) | 5.22 µM (inactive) | 3.4 µM (inactive) | 4.84 µM (inactive) | 6.3 µM (inactive) | 1.86 µM (inactive) | 3 µM (inactive) | 2.67 µM (inactive) | 2.2 µM (inactive) | 3.58 µM (inactive) | 12.3 µM (inactive) | 2.12 µM (inactive) | 2.11 µM (inactive)
O=C(Cc1nccc2c1[nH]c1ccccc12)OC1C#CCSCC#C/C=C\1 (stereo not given) | > 100 µM (inactive) | > 100 µM (inactive) | 95.9 µM (inactive) | 87.9 µM (inactive) | > 100 µM (inactive) | > 100 µM (inactive) | 39.5 µM (inactive) | > 100 µM (inactive) | – | > 100 µM (inactive) | > 100 µM (inactive) | > 100 µM (inactive) | > 100 µM (inactive) | > 100 µM (inactive) | 43 µM (inactive) | 38.8 µM (inactive) | > 100 µM (inactive) | > 100 µM (inactive) | > 100 µM (inactive) | > 100 µM (inactive)
